A short description of data set [1]: High-throughput equilibrium solubility at pH 6.8. In kind it is physicochemical. The settings on record: pH 6.8, aqueous buffer, thermodynamic from solid; read-out: HT-Eq Sol/pH 6.8. An outline of the steps: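 Following the procedure of Zhou et al. (2007), compound solubility was determined at pH 6.8.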
The nature of data set [2]: Parallel Artificial Membrane Permeability Assay (PAMPA) at pH 6.8. In kind it is physicochemical. The gist of the method: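 Reported as log Pe, membrane permeability was determined by parallel artificial membrane assay at pH 6.8 per Wohnsland–Faller.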
(In general: PAMPA measures passive passage across an artificial lipid membrane.)

Data set [3] concerns the target T1, PI3K alfa (Homo sapiens, UniProt P42336).
T1 construct: His tag (C); made in house; host or cells: baculovirus BV1075; Tn5 (Trichoplusia ni) or TiniPro insect cells
Kind of data set: PI3K alpha kinase assay (Kinase-Glo luminescence). It is filed as biochemical. The gist of the method: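 IC50 values come from a four-parameter logistic fit of percent inhibition at eight concentrations, typically 10 to 0.003 μM. Recombinant PI3Kα at 10 nM turned over 1 μM ATP with 10 μg/mL PI for 60 min at room temperature, and residual ATP was measured by Kinase-Glo.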

Data set [4] has as its target T2, PI3K delta (Homo sapiens, UniProt O00329).
T2 construct: for the full-length p110-d subunit are generated and fused by overlapping PCR; His tag (C); made in house; host or cells: baculovirus BV1060; Tn5 (Trichoplusia ni) or TiniPro insect cells
Put plainly: PI3K delta kinase assay (Kinase-Glo luminescence). It is filed as biochemical. The gist of the method:
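IC50s derive from 8-point inhibition curves fitted to a 4-parameter logistic model. Reaction: 10 nM purified p110δ/p85 iSH2 fusion, 1 μM ATP, 10 μg/mL PI substrate, pH 7.5 Tris buffer with MgCl2, NaCl, CHAPS and DTT, run 60 min at room temperature; remaining ATP read by Kinase-Glo luminescence.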
On the technique in general: In Kinase-Glo more light means more ATP remaining.

≈ marks a conversion by molar mass, not a printed value. Like-named read-outs stand apart in the source and are kept apart here. Some results are limits rather than exact numbers.

T1 sequence (P42336 with tags, fused parts or gaps limits assumed): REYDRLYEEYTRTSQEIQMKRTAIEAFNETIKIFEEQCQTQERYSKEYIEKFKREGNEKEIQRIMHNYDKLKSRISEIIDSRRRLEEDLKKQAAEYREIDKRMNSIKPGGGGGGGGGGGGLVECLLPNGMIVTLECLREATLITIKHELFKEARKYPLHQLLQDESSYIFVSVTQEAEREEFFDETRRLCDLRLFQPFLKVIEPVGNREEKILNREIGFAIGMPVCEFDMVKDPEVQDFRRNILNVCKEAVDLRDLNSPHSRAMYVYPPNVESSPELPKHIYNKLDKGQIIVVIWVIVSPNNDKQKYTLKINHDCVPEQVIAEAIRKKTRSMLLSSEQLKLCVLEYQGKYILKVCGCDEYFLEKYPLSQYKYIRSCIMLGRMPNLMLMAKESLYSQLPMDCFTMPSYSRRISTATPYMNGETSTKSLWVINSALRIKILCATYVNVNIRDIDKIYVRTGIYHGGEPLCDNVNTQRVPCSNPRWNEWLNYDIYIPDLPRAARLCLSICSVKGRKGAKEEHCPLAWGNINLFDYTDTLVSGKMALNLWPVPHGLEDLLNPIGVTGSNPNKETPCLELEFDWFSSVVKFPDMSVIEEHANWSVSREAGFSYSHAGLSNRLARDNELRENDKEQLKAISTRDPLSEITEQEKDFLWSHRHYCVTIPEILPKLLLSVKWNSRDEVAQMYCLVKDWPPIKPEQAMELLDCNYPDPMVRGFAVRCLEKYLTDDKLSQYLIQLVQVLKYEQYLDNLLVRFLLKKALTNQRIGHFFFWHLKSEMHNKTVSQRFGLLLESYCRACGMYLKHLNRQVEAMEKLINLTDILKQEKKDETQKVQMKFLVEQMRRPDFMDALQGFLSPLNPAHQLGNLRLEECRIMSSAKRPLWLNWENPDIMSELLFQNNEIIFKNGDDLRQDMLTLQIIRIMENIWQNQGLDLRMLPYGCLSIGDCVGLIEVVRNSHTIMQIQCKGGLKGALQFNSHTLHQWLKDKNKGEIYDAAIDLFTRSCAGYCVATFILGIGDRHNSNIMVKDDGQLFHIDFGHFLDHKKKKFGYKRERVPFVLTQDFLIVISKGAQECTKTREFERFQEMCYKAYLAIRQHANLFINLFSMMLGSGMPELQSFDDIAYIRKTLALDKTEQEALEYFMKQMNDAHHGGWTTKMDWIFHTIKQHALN
T2 sequence (O00329 with tags, fused parts or gaps limits assumed): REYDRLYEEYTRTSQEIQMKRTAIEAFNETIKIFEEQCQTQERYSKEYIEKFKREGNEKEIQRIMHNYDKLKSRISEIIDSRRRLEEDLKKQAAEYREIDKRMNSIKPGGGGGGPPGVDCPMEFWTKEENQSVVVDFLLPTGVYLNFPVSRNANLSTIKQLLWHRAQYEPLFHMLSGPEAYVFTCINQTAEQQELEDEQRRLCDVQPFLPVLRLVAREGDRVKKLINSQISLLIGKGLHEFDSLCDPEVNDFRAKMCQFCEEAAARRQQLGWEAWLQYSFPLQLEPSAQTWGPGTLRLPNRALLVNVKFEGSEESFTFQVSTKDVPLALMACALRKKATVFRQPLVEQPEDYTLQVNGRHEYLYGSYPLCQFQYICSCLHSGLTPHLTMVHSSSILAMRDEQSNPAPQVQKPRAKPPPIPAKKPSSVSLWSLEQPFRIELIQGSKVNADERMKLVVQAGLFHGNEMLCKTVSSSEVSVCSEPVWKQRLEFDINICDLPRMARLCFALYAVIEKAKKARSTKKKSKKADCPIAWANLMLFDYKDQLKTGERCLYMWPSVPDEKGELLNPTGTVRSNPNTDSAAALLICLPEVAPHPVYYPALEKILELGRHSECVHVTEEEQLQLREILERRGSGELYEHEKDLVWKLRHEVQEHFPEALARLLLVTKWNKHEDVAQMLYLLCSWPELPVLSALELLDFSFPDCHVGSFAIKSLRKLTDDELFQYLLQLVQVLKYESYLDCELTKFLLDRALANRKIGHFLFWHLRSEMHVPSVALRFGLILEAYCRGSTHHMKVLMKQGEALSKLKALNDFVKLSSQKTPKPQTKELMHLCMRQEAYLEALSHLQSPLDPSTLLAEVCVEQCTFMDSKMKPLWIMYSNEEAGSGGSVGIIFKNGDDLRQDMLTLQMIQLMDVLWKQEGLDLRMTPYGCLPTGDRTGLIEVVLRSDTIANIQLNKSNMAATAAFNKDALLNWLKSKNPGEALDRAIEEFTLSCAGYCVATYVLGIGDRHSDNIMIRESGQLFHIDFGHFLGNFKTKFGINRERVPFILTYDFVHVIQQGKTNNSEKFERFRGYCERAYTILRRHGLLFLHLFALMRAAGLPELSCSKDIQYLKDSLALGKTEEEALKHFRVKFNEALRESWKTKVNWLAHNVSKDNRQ

As for `Cc1nc(F)ccc1-n1c(=O)n(C)c2cnc3ccc(-c4cnc5c(ccn5C)c4)cc3c21` [Example 7.2, 1-(6-Fluoro-2-methyl-pyridin-3-yl)-3-methyl-8-(1-methyl-1H-pyrrolo[2,3-b]pyridin-5-yl)-1,3-dihydro-imidazo[4,5-c]quinolin-2-one], the solubility thermodynamic in data set [1] is 3 µg/mL (≈ 6.84 µM). The “HT-perm/logPe pH6.8” value in data set [2] was −3.7. Moreover, the IC50 amounted to 32 nM in data set [3] (read-out: PI3Kalfa/IC50) and 31 nM in data set [4] (read-out: PI3Kdelta/IC50).

As for `CCOc1ccc(-c2ccc3ncc4c(c3c2)n(-c2ccc(F)nc2C)c(=O)n4C)cn1` [Example 7.3, 8-(6-Ethoxy-pyridin-3-yl)-1-(6-fluoro-2-methyl-pyridin-3-yl)-3-methyl-1,3-dihydro-imidazo[4,5-c]quinolin-2-one], the solubility thermodynamic in data set [1] amounted to 2 µg/mL (≈ 4.66 µM). Further, in data set [2], the “HT-perm/logPe pH6.8” value is −3.7. Also, the results for the IC50 in data set [3] (read-out: PI3Kalfa/IC50) and in data set [4] (read-out: PI3Kdelta/IC50) were 67 nM and 71 nM, respectively.

Consider `CNc1ccc(-c2ccc3ncc4c(c3c2)n(-c2ccc(F)nc2C)c(=O)n4C)cn1` [Example 7.4, 1-(6-Fluoro-2-methyl-pyridin-3-yl)-3-methyl-8-(6-methylamino-pyridin-3-yl)-1,3-dihydro-imidazo[4,5-c]quinolin-2-one], for which the solubility thermodynamic in data set [1] came to 11 µg/mL (≈ 26.5 µM). For the same molecule, the “HT-perm/logPe pH6.8” value in data set [2] was −4.3. For the same molecule, the results for the IC50 in data set [3] (read-out: PI3Kalfa/IC50) and in data set [4] (read-out: PI3Kdelta/IC50) were 27 nM and 21 nM, respectively.

Take `CCOc1cc(-c2ccc3ncc4c(c3c2)n(-c2ccc(F)nc2C)c(=O)n4C)cnc1COC` [Example 7.5, 8-(5-Ethoxy-6-methoxymethyl-pyridin-3-yl)-1-(6-fluoro-2-methyl-pyridin-3-yl)-3-methyl-1,3-dihydro-imidazo[4,5-c]quinolin-2-one]: in data set [1], the solubility thermodynamic came to 94 µg/mL (≈ 199 µM). Besides, in data set [2], the “HT-Perm logPe pH6.8” value is on record as −3.7. Also, the figures for the IC50 in data set [3] (read-out: EPK_PI3Kalfa/IC50) and in data set [4] (read-out: EPK_PI3Kdelta/IC50) were 94 nM and 78 nM, respectively.

As to `Cc1nc(F)ccc1-n1c(=O)n(C)c2cnc3ccc(-c4cncc(C(C)(C)O)c4)cc3c21` [Example 7.8, 1-(6-Fluoro-2-methyl-pyridin-3-yl)-8-[5-(1-hydroxy-1-methyl-ethyl)-pyridin-3-yl]-3-methyl-1,3-dihydro-imidazo[4,5-c]quinolin-2-one], the solubility thermodynamic in data set [1] came out at 372 µg/mL (≈ 839 µM). For the same molecule, the “HT-Perm logPe pH6.8” value in data set [2] is given as −5.5. For the same molecule, the IC50 came to 21 nM in data set [3] (read-out: EPK_PI3Kalfa/IC50) and 38 nM in data set [4] (read-out: EPK_PI3Kdelta/IC50).

As to `Cc1nc(N2CCN(C)C(=O)C2)ccc1-n1c(=O)n(C)c2cnc3ccc(-c4cnc(N)c(C(F)(F)F)c4)cc3c21` [Example 21.1, 8-(6-Amino-5-trifluoromethyl-pyridin-3-yl)-3-methyl-1-[2-methyl-6-(4-methyl-3-oxo-piperazin-1-yl)-pyridin-3-yl]-1,3-dihydro-imidazo[4,5-c]quinolin-2-one], the solubility thermodynamic in data set [1] was 22 µg/mL (≈ 39.1 µM). For the same molecule, the “HT-Perm logPe pH6.8” value in data set [2] is −6.1. For the same molecule, the IC50 in data set [3] (read-out: EPK_PI3Kalfa/IC50) and in data set [4] (read-out: EPK_PI3Kdelta/IC50) was 5 nM in each case.

Turning to `CCOc1cc(-c2ccc3ncc4c(c3c2)n(-c2ccc(OCCOC)nc2C)c(=O)n4C)cnc1COC` [Example 22.1, 8-(5-Ethoxy-6-methoxymethyl-pyridin-3-yl)-1-[6-(2-methoxy-ethoxy)-2-methyl-pyridin-3-yl]-3-methyl-1,3-dihydro-imidazo[4,5-c]quinolin-2-one], the solubility thermodynamic in data set [1] stood at 7 µg/mL (≈ 13.2 µM). The “HT-Perm logPe pH6.8” value in data set [2] is −3.8. Further, the IC50 stood at 188 nM in data set [3] (read-out: EPK_PI3Kalfa/IC50) and 60 nM in data set [4] (read-out: EPK_PI3Kdelta/IC50).

In the case of `COCc1ncc(-c2ccc3ncc4c(c3c2)n(-c2ccc(N3CCC3)nc2C)c(=O)n4C)cc1OC(C)C` [Example 23.2, 1-(6-Azetidin-1-yl-2-methyl-pyridin-3-yl)-8-(5-isopropoxy-6-methoxymethyl-pyridin-3-yl)-3-methyl-1,3-dihydro-imidazo[4,5-c]quinolin-2-one], the solubility thermodynamic in data set [1] was found to be 264 µg/mL (≈ 503 µM). In addition, the “HT-Perm logPe pH6.8” value in data set [2] was −3.7. Further, the values for the IC50 in data set [3] (read-out: EPK_PI3Kalfa/IC50) and in data set [4] (read-out: EPK_PI3Kdelta/IC50) were 33 nM and 31 nM, respectively.

In the case of `Cc1nc(N2CCC2)ccc1-n1c(=O)n(C)c2cnc3ccc(-c4cncc(C(C)(C)O)c4)cc3c21` [Example 23.3, 1-(6-Azetidin-1-yl-2-methyl-pyridin-3-yl)-8-[5-(1-hydroxy-1-methyl-ethyl)-pyridin-3-yl]-3-methyl-1,3-dihydro-imidazo[4,5-c]quinolin-2-one], the solubility thermodynamic in data set [1] was determined as 204 µg/mL (≈ 424 µM). Also, in data set [2], the “HT-Perm logPe pH6.8” value is given as −5. In addition, the IC50 in data set [3] (read-out: EPK_PI3Kalfa/IC50) turned out to be 7 nM; in data set [4] (read-out: EPK_PI3Kdelta/IC50), 16 nM.

Turning to `CCOc1cc(-c2ccc3ncc4c(c3c2)n(-c2ccc(N3CCC3)nc2C)c(=O)n4C)cnc1COC` [Example 23.5, 1-(6-Azetidin-1-yl-2-methyl-pyridin-3-yl)-8-(5-ethoxy-6-methoxymethyl-pyridin-3-yl)-3-methyl-1,3-dihydro-imidazo[4,5-c]quinolin-2-one], the solubility thermodynamic in data set [1] stood at 69 µg/mL (≈ 135 µM). For the same molecule, the “HT-Perm logPe pH6.8” value in data set [2] is on record as −3.8. The IC50 in data set [3] (read-out: EPK_PI3Kalfa/IC50) came out at 21 nM; in data set [4] (read-out: EPK_PI3Kdelta/IC50) it was 25 nM.

Take `COCc1ncc(-c2ccc3ncc4c(c3c2)n(-c2ccc(N3CCC3)nc2C)c(=O)n4C)cc1OC` [Example 23.6, 1-(6-Azetidin-1-yl-2-methyl-pyridin-3-yl)-8-(5-methoxy-6-methoxymethyl-pyridin-3-yl)-3-methyl-1,3-dihydro-imidazo[4,5-c]quinolin-2-one]: the solubility thermodynamic in data set [1] was 21 µg/mL (≈ 42.3 µM). In data set [2], the “HT-Perm logPe pH6.8” value is listed as −4.2. Moreover, the IC50 was 44 nM in data set [3] (read-out: EPK_PI3Kalfa/IC50) and 46 nM in data set [4] (read-out: EPK_PI3Kdelta/IC50).

For the molecule `CCNc1cc(-c2ccc3ncc4c(c3c2)n(-c2ccc(N3CCC3)nc2C)c(=O)n4C)cnc1CO` [Example 23.8, 1-(6-Azetidin-1-yl-2-methyl-pyridin-3-yl)-8-(5-ethylamino-6-hydroxymethyl-pyridin-3-yl)-3-methyl-1,3-dihydro-imidazo[4,5-c]quinolin-2-one], the solubility thermodynamic in data set [1] was 57 µg/mL (≈ 115 µM). The “HT-Perm logPe pH6.8” value in data set [2] is recorded as −5.7. In addition, the IC50 came to 14 nM in data set [3] (read-out: EPK_PI3Kalfa/IC50) and 17 nM in data set [4] (read-out: EPK_PI3Kdelta/IC50).

As to `Cc1nc(N2CCC2)ccc1-n1c(=O)n(C)c2cnc3ccc(-c4cncc(OC(C)C)c4)cc3c21` [Example 23.9, 1-(6-Azetidin-1-yl-2-methyl-pyridin-3-yl)-8-(5-isopropoxy-pyridin-3-yl)-3-methyl-1,3-dihydro-imidazo[4,5-c]quinolin-2-one], in data set [1], the solubility thermodynamic is 35 µg/mL (≈ 72.8 µM). The “HT-Perm logPe pH6.8” value in data set [2] was −3.7. Moreover, the IC50 is 33 nM in data set [3] (read-out: EPK_PI3Kalfa/IC50) and 32 nM in data set [4] (read-out: EPK_PI3Kdelta/IC50).

With `CNc1ncc(-c2ccc3ncc4c(c3c2)n(-c2ccc(N3CC(F)(F)C3)nc2C)c(=O)n4C)cn1` [Example 24.1, 1-[6-(3,3-Difluoro-azetidin-1-yl)-2-methyl-pyridin-3-yl]-3-methyl-8-(2-methylamino-pyrimidin-5-yl)-1,3-dihydro-imidazo[4,5-c]quinolin-2-one], the solubility thermodynamic in data set [1] was 59 µg/mL (≈ 121 µM). Besides, in data set [2], the “HT-Perm logPe pH6.8” value is −3.9. Further, the results for the IC50 in data set [3] (read-out: EPK_PI3Kalfa/IC50) and in data set [4] (read-out: EPK_PI3Kdelta/IC50) were 49 nM and 164 nM, respectively.

On to `CCOc1cc(-c2ccc3ncc4c(c3c2)n(-c2ccc(N3CCCC3)nc2C)c(=O)n4C)cnc1COC` [Example 25.2, 8-(5-Ethoxy-6-methoxymethyl-pyridin-3-yl)-3-methyl-1-(2-methyl-6-pyrrolidin-1-yl-pyridin-3-yl)-1,3-dihydro-imidazo[4,5-c]quinolin-2-one], for which the solubility thermodynamic in data set [1] is 187 µg/mL (≈ 356 µM). In data set [2], the “HT-Perm logPe pH6.8” value was −3.9. The IC50 in data set [3] (read-out: EPK_PI3Kalfa/IC50) is 67 nM; in data set [4] (read-out: EPK_PI3Kdelta/IC50) it was 43 nM.

For the molecule `Cc1nc(N2CCCC2)ccc1-n1c(=O)n(C)c2cnc3ccc(-c4cncc(C(C)(C)O)c4)cc3c21` [Example 25.3, 8-[5-(1-Hydroxy-1-methyl-ethyl)-pyridin-3-yl]-3-methyl-1-(2-methyl-6-pyrrolidin-1-yl-pyridin-3-yl)-1,3-dihydro-imidazo[4,5-c]quinolin-2-one], in data set [1], the solubility thermodynamic was 99 µg/mL (≈ 200 µM). Further, the “HT-Perm logPe pH6.8” value in data set [2] was −4.5. The IC50 in data set [3] (read-out: EPK_PI3Kalfa/IC50) and in data set [4] (read-out: EPK_PI3Kdelta/IC50) was below 3 nM in each case.

On to `Cc1nc(N(C)CCO)ccc1-n1c(=O)n(C)c2cnc3ccc(-c4cnc(N)c(C(F)(F)F)c4)cc3c21` [Example 26.1, 8-(6-Amino-5-trifluoromethyl-pyridin-3-yl)-1-{6-[(2-hydroxy-ethyl)-methyl-amino]-2-methyl-pyridin-3-yl}-3-methyl-1,3-dihydro-imidazo[4,5-c]quinolin-2-one], for which the solubility thermodynamic in data set [1] was determined as 4 µg/mL (≈ 7.64 µM). In addition, the “HT-Perm logPe pH6.8” value in data set [2] was −4.2. For the same molecule, the IC50 was 12 nM in data set [3] (read-out: EPK_PI3Kalfa/IC50) and below 3 nM in data set [4] (read-out: EPK_PI3Kdelta/IC50).

Turning to `CNc1ncc(-c2ccc3ncc4c(c3c2)n(-c2ccc(N(C)CCO)nc2C)c(=O)n4C)cn1` [Example 26.2, 1-{6-[(2-Hydroxy-ethyl)-methyl-amino]-2-methyl-pyridin-3-yl}-3-methyl-8-(2-methylamino-pyrimidin-5-yl)-1,3-dihydro-imidazo[4,5-c]quinolin-2-one], the solubility thermodynamic in data set [1] was found to be 23 µg/mL (≈ 48.9 µM). Besides, the “HT-Perm logPe pH6.8” value in data set [2] is listed as −4.9. For the same molecule, the IC50 in data set [3] (read-out: EPK_PI3Kalfa/IC50) came out at 63 nM; in data set [4] (read-out: EPK_PI3Kdelta/IC50) it was 88 nM.
